The values below come from patent EP3871665B1, “INHIBITORS OF RNA-BINDING PROTEINS AS ANTI-CANCER DRUGS” (priority 2020, dated 2021).

Series [1] deals with ES-2 IGF2BP1-KO cells re-expressing GFP-IGF2BP1. The experiment in a line: 2D growth / proliferation (cell confluence, IncuCyte S3), cells re-expressing wild type IGF2BP1. The series is classed as cell-based. How it is done:
(§1) Statistical significance was analyzed by logrank test. […] Modified cysteines are highlighted in bold and upper position. […] Right: Local atomic fluctuations around cysteine residues. […] (A-C) RNA-dependent protein-protein association assay. […] EV (1) indicates mock-transfected controls. Representative Western (A) and Northern (C) blots are shown. P, pulldown; I, input. […] A representative Western blot analysis is shown in (C). […] Six mice were analyzed per condition. Error bars indicate standard deviation. […] Error bars indicate standard deviation of three analyses. […] DMSO-treated cells were used for comparisons. […] (*) p < 0.05, (**) p < 0.01, (***) p < 0.001. […] Data represent the mean ± SD (n = 6). […] (**) p < 0.01.
To probe if the identified residues are druggable targets, a search for chemical probes with exquisite chemo- and regioselectivity to cysteine residues was performed and their ability to target IGF2BP1's Cys253 and Cys336 was tested, whilst functioning as inhibitors. […] Both probes are known to covalently modify cysteine residues in a highly site-specific manner. […] These probes were then used in ES-2 IGF2BP1 KO cells, re-expressing either the wild type version of IGF2BP1 or the C253/336A mutant. The initial assay was set to observe if the probes influence the 2D growth, determined here as cell density, of ES-2 cells in a IGF2BP1-Cys253/336-dependent manner. IC50 values were determined by measuring the cell viability or cell confluence of cells incubated with increasing concentrations of J2 and J5.

Series [2] in a line: Drug-likeness assessment / solubility in the assays. The format is physicochemical.
For series [3], the system named is ES-2 IGF2BP1-KO cells re-expressing GFP-IGF2BP1C253/336A. The experiment in a line: 2D growth / proliferation (cell confluence, IncuCyte S3), cells re-expressing C253/336A mutant. The format is cell-based. How it is done:
as §1
(§2) To probe if the identified residues are druggable targets, a search for chemical probes with exquisite chemo- and regioselectivity to cysteine residues was performed and their ability to target IGF2BP1's Cys253 and Cys336 was tested, whilst functioning as inhibitors. […] Both probes are known to covalently modify cysteine residues in a highly site-specific manner. […] The initial assay was set to observe if the probes influence the 2D growth, determined here as cell density, of ES-2 cells in a IGF2BP1-Cys253/336-dependent manner. IC50 values were determined by measuring the cell viability or cell confluence of cells incubated with increasing concentrations of J2 and J5.

The test system is the same in series [4]. The series is described as follows: Spheroid Matrigel invasion assay, cells re-expressing C253/336A mutant. The format is cell-based. Conditions: up to 6 µM; 24h post-treatment.
Protocol: (§3) (A) Representative images of tumor cell spheroids (top panel), tumor cell invasion in matrigel (middle panel), and spheroid growth in anoikis resistance assays (lower panel) observed for ES-2 IGF2BP1-KO cells re-expressing GFP (1), wild type GFP-IGF2BP1 (2) or GFP- IGF2BP1-C253/336A (3). (B) Quantification of 2 independent experiments (n=9) shown in (A): spheroid viability (left panel), invasion index (middle panel) and anoikis resistance (right panel). Statistical significance was calculated by unpaired t-test as indicated. […] Tumor formation was determined for ES-2 IGF2BP1-KO cells re-expressing wild type IGF2BP1 (GFP-I1, 1) or GFP-IGF2BP1-C253/336A (GFP-C253/336A, 2). The tumor volume was measured at indicated time points post-injection by a caliper, (A). The final volume (B) and weight (C) of removed tumors were determined and are shown by boxplots. Representative images of macroscopic tumors acquired by non-invasive infrared imaging in mice (D) and excised tumors 17d post-injection (E). Six mice were analyzed per condition. Error bars indicate standard deviation. Statistical significance was calculated by unpaired t test with Welch's correction or ordinary one-way ANOVA with Tukey's multiple comparison test. […] 2000 cells either from ES-2 IGF2BP1-KO cells re-expressing GFP-IGF2BP1 or GFP-IGF2BP1C253/336A were seeded in a 96 well plate.
For series [5], the system named is tumors bearing ES-2 cells re-expressing the C253/336A mutant. The experiment in a line: Xenograft tumor growth, ES-2 cells re-expressing C253/336A mutant. The note with it: 0.1 mg/kg daily intraperitoneally. The series is classed as in vivo, female SCID mice.
Protocol: as §3
Series [6] relates to ES-2 IGF2BP1-KO cells re-expressing the GFP-IGF2BP1C253/336A mutant. The experiment in a line: Cell viability (CellTiter Glo), cells re-expressing C253/336A mutant. The note with it: cell viability 72h, read-out: IC50C253/336A. The series is classed as cell-based. How it is done:
as §1, §2

For series [7], the system named is ES-2 IGF2BP1-KO cells re-expressing the wild type GFP-IGF2BP1. The series is described as follows: Cell viability (CellTiter Glo), cells re-expressing wild type IGF2BP1. The series is classed as cell-based. How it is done: as §1
To probe if the identified residues are druggable targets, a search for chemical probes with exquisite chemo- and regioselectivity to cysteine residues was performed and their ability to target IGF2BP1's Cys253 and Cys336 was tested, whilst functioning as inhibitors. […] The initial assay was set to observe if the probes influence the 2D growth, determined here as cell density, of ES-2 cells in a IGF2BP1-Cys253/336-dependent manner. IC50 values were determined by measuring the cell viability or cell confluence of cells incubated with increasing concentrations of J2 and J5.
(In general: In ATP-based viability assays light output follows the ATP content of the culture.)

Series [8] deals with xenografts bearing ES-2 cells re-expressing the wild-type IGF2BP1 (GFP-IGF2BP1). Conditions: 0.1 mg/kg daily intraperitoneally; GFP-IGF2BP1 tumors.
Protocol: as §3
For series [9], the system named is panel of cancer cell lines. The experiment in a line: Cell proliferation (IncuCyte S3 confluence) in a panel of cancer cell lines. The format is cell-based. Conditions: 72h.
Series [10] concerns the target T1, IGF2BP1 (Homo sapiens, UniProt Q9NZI8).
T1 construct: made in house
The series is described as follows: Site-specific protein modification (Cys-to-Dha conversion), LC-MS/MS readout. The format is biochemical. On the procedure:
as §1
A multiple-Cys-containing RNA-binding protein with a recognized role in cancer is selected, for example and not limited to, the Insulin-like growth factor 2 mRNA binding protein 1 (IGF2BP1). It is then expressed in bacteria (not limited to), purified and submitted to site-specific protein modification reactions in vitro using cysteine-directed probes (Cys-to-Dha conversion), for example and not limited to, the compound 2,5 dibromohexanediamide (1). The reactions are performed in mild conditions, PBS buffer pH 8.0 for 1 h at 37∘C, using increasing equivalents of 1. The resulting reaction is then purified with a spin column and submitted to trypsin digestion followed by LC-MS/MS using standard protocols. The identification of Dha-modified peptides is performed by adding the corresponding mass shift of 33.9878 m/z (Dha) as a post-translational modification in the global search for modifications. The Dha conversion of specific cysteine residues is located within the primary sequence of the protein of interest (POI) to uncover preferentially modified cysteine residues.

T1 sequence (Q9NZI8 whole entry): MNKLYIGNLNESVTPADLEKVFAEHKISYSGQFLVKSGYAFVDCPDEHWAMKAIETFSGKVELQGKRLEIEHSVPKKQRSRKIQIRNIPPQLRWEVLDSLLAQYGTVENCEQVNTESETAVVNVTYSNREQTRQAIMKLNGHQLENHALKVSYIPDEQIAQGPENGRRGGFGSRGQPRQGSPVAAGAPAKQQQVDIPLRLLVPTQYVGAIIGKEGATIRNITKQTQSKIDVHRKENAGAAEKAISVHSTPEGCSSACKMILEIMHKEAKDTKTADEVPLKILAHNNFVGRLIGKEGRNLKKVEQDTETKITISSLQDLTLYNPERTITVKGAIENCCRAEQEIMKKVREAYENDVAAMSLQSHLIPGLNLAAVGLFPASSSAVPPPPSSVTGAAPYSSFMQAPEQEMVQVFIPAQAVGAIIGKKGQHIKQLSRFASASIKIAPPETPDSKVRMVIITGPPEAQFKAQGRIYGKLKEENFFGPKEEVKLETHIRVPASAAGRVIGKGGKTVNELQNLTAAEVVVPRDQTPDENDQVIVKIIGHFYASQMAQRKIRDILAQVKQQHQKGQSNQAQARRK

In the case of `O=C(/C=C/C(=O)c1ccccc1)NCCNc1ccc([N+](=O)[O-])c2nonc12` [J2, (E)-N-(2-((7-nitrobenzo[c][1,2,5]oxadiazol-4-yl)amino)ethyl)-4-oxo-4-phenylbut-2-enamide], the “growth of ES-2 cells” value in [1] (1µM, cells re-expressing the wild type protein) is reported as “strong impairment”. Further, the IC50 in series [1] (cells expressing wild type IGF2BP1, confluence at 72h, DMSO = 100% growth) worked out at 840 nM; in series [3] (Homo sapiens, ES-2 cells expressing the C253/336A mutant, confluence at 72h) it was 2200 nM. In addition, in [1] (wild type vs C253/336A mutant cells), the selective cytoreductive effect is recorded as 2 fold. Moreover, the solubility entry in series [2] is “solubility problems”. Further, the growth of cells result in [3] (1µM, cells expressing the C253/336A mutant) is “no substantial impact”.

Regarding `CCNC(=O)/C=C/C(=O)c1ccccc1` [J5, (E)-N-ethyl-4-oxo-4-phenylbut-2-enamide], in series [4], the invasion result is given as “unchallenged invasion”. The “anti-tumor effect (tumor volume, tumor mass)” value in [5] is given as “absolutely no effect”; in series [8] it was “strong anti-tumor effect”. Further, the IC50 in [6] came to 1750 nM; in series [7] (cell viability 72h, CellTiter Glo) it was 970 nM. Also, in series [2], the solubility entry was “much higher solubility”. The “selectivity to ES-2 cells re-expressing the wild type IGF2BP1” value in series [7] (wild type vs C253/336A) stood at 1.8 fold. Also, the “potency in a panel of cancer cell lines” value in series [9] is “potency as anti-cancer drug in all of them”.

With `NC(=O)C(Br)CCC(Br)C(N)=O` (stereo not drawn) [compound 1, 2,5 dibromohexanediamide], in [10] (PBS buffer pH 8.0, 1 h, 37°C), the “equivalents at which Cys253 was modified” value is 200 eq and the “equivalents at which Cys336 was modified” value turned out to be 300 eq. In [10] (in some reactions), the “equivalents at which Cys336 was modified, in some reactions” value was determined as 200 eq. Besides, the “equivalents at which almost all cysteines (exception Cys110) were modified” value in series [10] (in vitro) is “above 500 eq”.
